# Test results published in US9718822B2, “Macrocyclic compounds as Trk kinase inhibitors” (Array BioPharma, Inc., priority 2010, dated 2017).
# Molecular target: His-tagged recombinant human TrkA (cytoplasmic domain) (Homo sapiens (Human), UniProt P04629)
# Assay: TrkA Binding Assay (LanthaScreen Eu Kinase Binding Assay)
# Conditions: not given
# Procedure: The ability of a compound to bind to TrkA was measured by Invitrogen's LanthaScreen™ Eu Kinase Binding Assay. […] After a 60-minute incubation at 22° C., the reaction was measured using the EnVision via TR-FRET dual wavelength detection, and the POC was calculated from the emission ratio. The compound dose response data was fit to a 4-parameter logistic model and IC50 was defined as the concentration of compound at 50 POC.
# Sequence of His-tagged recombinant human TrkA (cytoplasmic domain) (P04629 440-796): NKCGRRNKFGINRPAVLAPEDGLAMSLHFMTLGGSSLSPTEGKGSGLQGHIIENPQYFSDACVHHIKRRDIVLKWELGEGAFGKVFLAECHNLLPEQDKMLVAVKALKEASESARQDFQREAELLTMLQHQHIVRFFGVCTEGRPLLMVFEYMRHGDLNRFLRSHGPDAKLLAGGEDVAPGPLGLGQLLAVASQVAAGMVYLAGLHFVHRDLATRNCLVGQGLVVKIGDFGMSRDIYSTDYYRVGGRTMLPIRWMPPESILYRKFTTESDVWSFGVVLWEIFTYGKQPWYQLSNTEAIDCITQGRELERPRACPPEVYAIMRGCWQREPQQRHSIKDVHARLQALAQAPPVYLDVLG
row,Structure (SMILES),IC50 [nM]
1,"O=C1NCCCOc2cccc(n2)[C@H]2CCCN2c2ccn3ncc1c3n2 [Example 2, (6R)-12-oxa-2,16,20,21,24,26-hexaazapentacyclo[16.5.2.1^7,11.0^2,6.0^21,25]hexacosa-1(24),7(26),8,10,18(25),19,22-heptaen-17-one]",1 to 100
2,"C[C@H]1CNC(=O)c2cnn3ccc(nc23)N2CCC[C@@H]2c2cc(F)cn(c2=O)C1 [Example 35, (6R,13S)-9-fluoro-13-methyl-2, 11, 15,19,20,23-hexaazapentacyclo [15.5.2.1^7,11.0^2,6.0^20,24]pentacosa-1(23),7,9,17(24),18,21-hexaene-16,25-dione]",1 to 100
3,"CC1(C)CNC(=O)c2cnn3ccc(nc23)N2CCC[C@@H]2c2cc(F)cnc2OC1 [Example 36, (6R)-9-fluoro-15,15-dimethyl-13-oxa-2,11,17,21,22,25-hexaazapentacyclo [17.5.2.0^2,6.0^7,12.0^22,26]hexacosa-1(25),7,9,11,19(26),20,23-heptaen-18-one]",1 to 100
4,"CC1(C)CNC(=O)c2cnn3ccc(nc23)N2CCC[C@@H]2c2cc(F)cn(c2=O)C1 [Example 40, (6R)-9-fluoro-13,13-dimethyl-2,11,15,19,20,23-hexaazapentacyclo [15.5.2.1^7,11.0^2,6.0^20,24]pentacosa-1(23),7,9,17(24),18,21-hexaene-16,25-dione]",1 to 100
5,"O=C1NCCCOc2ccc(F)cc2[C@H]2C[C@@H](O)CN2c2ccn3ncc1c3n2 [Example 42, (4R,6R)-9-fluoro-4-hydroxy-13-oxa-2,17,21,22,25-pentaazapentacyclo [17.5.2.0^2,6.0^7,12.0^22,26]hexacosa-1(25),7(12),8,10,19(26),20,23-heptaen-18-one]",1 to 100
6,"O=C1NCCOc2ccc(F)cc2[C@H]2C[C@@H](O)CN2c2ccn3ncc1c3n2 [Example 43, (4R,6R)-9-fluoro-4-hydroxy-13-oxa-2,16,20,21,24-pentaazapentacyclo [16.5.2.0^2,6.0^7,12.0^21,25]pentacosa-1(24),7,9,11,18(25),19,22-heptaen-17-one]",1 to 100
7,"O=C1NC[C@@H](O)COc2ccc(F)cc2[C@H]2C[C@@H](O)CN2c2ccn3ncc1c3n2 [Example 44, (4R,6R,15R)-9-fluoro-4,15-dihydroxy-13-oxa-2,17,21,22,25-pentaazapentacyclo [17.5.2.0^2,6.0^7,12.0^22,26]hexacosa-1(25),7(12),8,10,19(26),20,23-heptaen-18-one]",1 to 100
8,"O=C1NC[C@@H](O)COc2ccc(F)cc2[C@@H]2C[C@@H](O)CN2c2ccn3ncc1c3n2 [Example 44-B, (4R,6S,15R)-9-fluoro-4,15-dihydroxy-13-oxa-2,17,21,22,25-pentaazapentacyclo [17.5.2.0^2,6.0^7,12.0^22,26]hexacosa-1(25),7(2),8,10,19(26),20,23-heptaen-18-one]",1 to 100

# Same assay, conditions: averaged IC50 values; TR-FRET, 60-minute incubation at 22° C., 2% DMSO final
row,Structure (SMILES),IC50 [nM]
1,"O=C1NC[C@H](O)COc2ccc(F)cc2C2CC(F)(F)CN2c2ccn3ncc1c3n2 (single isomer, unassigned; diastereomer 1) [45 Diastereomer 1]",1 to 100
2,"O=C1NC[C@H](O)COc2ccc(F)cc2C2CC(F)(F)CN2c2ccn3ncc1c3n2 (single isomer, unassigned; diastereomer 2) [45 Diastereomer 2]",1 to 100
3,"O=C1NC[C@H](O)COc2ccc(F)cc2[C@@H]2C[C@@H](O)CN2c2ccn3ncc1c3n2 [Example 41-B, (4R,6S,15S)-9-fluoro-4,15-dihydroxy-13-oxa-2,17,21,22,25-pentaazapentacyclo [17.5.2.0^2,6.0^7,12.0^22,26]hexacosa-1(25),7(12),8,10,19(26),20,23-heptaen-18-one]",100 to 3000
4,"O=C1NCCCOc2ccc(F)cc2[C@@H]2C[C@@H](O)CN2c2ccn3ncc1c3n2 [Example 42-B, (4R,6S)-9-fluoro-4-hydroxy-13-oxa-2,17,21,22,25-pentaazapentacyclo [17.5.2.0^2,6.0^7,12.0^22,26]hexacosa-1(25),7(12),8,10,19(26),20,23-heptaen-18-one]",100 to 3000
5,"O=C1NCCOc2ccc(F)cc2[C@@H]2C[C@@H](O)CN2c2ccn3ncc1c3n2 [Example 43-B, (4R,6S)-9-fluoro-4-hydroxy-13-oxa-2,16,20,21,24-pentaazapentacyclo [16.5.2.0^2,6.0^7,2.0^21,25]pentacosa-1(24),7,9,11,18(25),19,22-heptaen-17-one]",100 to 3000

# Molecular target: histidine-tagged recombinant human TrkA, cytoplasmic domain (Homo sapiens (Human), UniProt P04629)
# Assay: TrkA ELISA Assay; note: 2.5 nM TrkA
# Type: biochemical
# Conditions: read-out: TrkA Elisa Enzyme Assay IC50
# Procedure: An enzyme-linked immunosorbant assay (ELISA) was used to assess TrkA kinase activity in the presence of inhibitors. Immulon 4HBX 384-well microtiter plates (Thermo part #8755) were coated with a 0.025 mg/mL solution of poly (Glu, Ala, Tyr; 6:3:1; Sigma P3899). […] The assay buffer consisted of 25 mM MOPS pH 7.5, 0.005% (v/v) Triton X-100 and 5 mM MgCl2. The reaction mixture was removed from the plate by washing with PBS containing 0.1% (v/v) Tween 20. The phosphorylated reaction product was detected using 0.2 μg/mL of a phosphotyrosine specific monoclonal antibody (clone PY20) conjugated to horseradish peroxidase in conjunction with the TMB Peroxidase Substrate System (KPL). After the addition of 1M phosphoric acid, the chromogenic substrate color intensity was quantitated via absorbance at 450 nm. IC50 values were calculated using either a 4 or 5-parameter logistic curve fit.
# Table 1 provides averaged IC50 values for compounds of the invention when tested in this assay.
# Sequence of histidine-tagged recombinant human TrkA, cytoplasmic domain (P04629 440-796): as above
row,Structure (SMILES),IC50 [nM]
1,"O=C1NCCCOc2cccc(n2)[C@H]2CCCN2c2ccn3ncc1c3n2 [Example 2, (6R)-12-oxa-2,16,20,21,24,26-hexaazapentacyclo[16.5.2.1^7,11.0^2,6.0^21,25]hexacosa-1(24),7(26),8,10,18(25),19,22-heptaen-17-one]",1 to 100
2,"O=C1NCCNc2ncc(F)cc2[C@H]2CCCN2c2ccn3ncc1c3n2 [Example 12, (6R)-9-fluoro-2,11,13,16,20,21,24-heptaazapentacyclo[16.5.2.0^2,6.0^7,12.0^21,25]pentacosa-1(24),7,9,11,18(25),19,22-heptaen-17-one]",1 to 100
3,"O=C1NCCCNc2ncc(F)cc2[C@H]2CCCN2c2ccn3ncc1c3n2 [Example 13, (6R)-9-fluoro-2,11,13,17,21,22,25-heptaazapentacyclo[17.5.2.0^2,6.0^7,12.0^22,26]hexacosa-1(25),7,9,11,19(26),20,23-heptaen-18-one]",1 to 100
4,"O=C1NC[C@@H](F)Cn2cc(F)cc(c2=O)[C@H]2CCCN2c2ccn3ncc1c3n2 [Example 17, (6R,13R)-9,13-difluoro-2,11,15,19,20,23-hexaazapentacyclo[15.5.2.1^7,11.0^2,6.0^20,24]pentacosa-1(23),7,9,17(24),18,21-hexaene-16,25-dione]",1 to 100
5,"Fc1ccc2c(c1)[C@H]1CCCN1c1ccn3ncc(c3n1)CNCCO2 [Example 21, (6R)-9-fluoro-13-oxa-2,16,20,21,24-pentaazapentacyclo[16.5.2.0^2,6.0^7,12.0^21,25]pentacosa-1(24),7,9,11,18(25),19,22-heptaene]",100 to 3000
6,"CC(=O)N1CCOc2ccc(F)cc2[C@H]2CCCN2c2ccn3ncc(c3n2)C1 [Example 22, 1-[(6R)-9-fluoro-13-oxa-2,16,20,21,24-pentaazapentacyclo[16.5.2.0^2,6.0^7,12.0^21,25]pentacosa-1(24),7,9,11,18(25),19,22-heptaen-16-yl]ethan-1-one]",1 to 100
7,"Fc1ccc2c(c1)[C@H]1CCCN1c1ccn3ncc(c3n1)CNCCCO2 [Example 24, (6R)-9-fluoro-13-oxa-2,17,21,22,25-pentaazapentacyclo[17.5.2.0^2,6.0^7,12.0^22,26]hexacosa-1(25),7,9,11,19(26),20,23-heptaene]",100 to 3000
8,"CS(=O)(=O)N1CCOc2ccc(F)cc2[C@H]2CCCN2c2ccn3ncc(c3n2)C1 [Example 25, (6R)-9-fluoro-16-methanesulfonyl-13-oxa-2,16,20,21,24-pentaazapentacyclo[16.5.2.0^2,6.0^7,12.0^21,25]pentacosa-1(24),7,9,11,18(25),19,22-heptaene]",1 to 100
9,"CS(=O)(=O)N1CCCOc2ccc(F)cc2[C@H]2CCCN2c2ccn3ncc(c3n2)C1 [Example 27, (6R)-9-fluoro-7-methanesulfonyl-13-oxa-2,17,21,22,25-pentaazapentacyclo[17.5.2.0^2,6.0^7,12.0^22,26]hexacosa-1(25),7,9,11,19(26),20,23-heptaene]",1 to 100
10,CCNC(=O)N1CCCOc2ccc(F)cc2[C@H]2CCCN2c2ccn3ncc(c3n2)C1 [Example 28],1 to 100
11,"CCNC(=O)N1CCOc2ccc(F)cc2[C@H]2CCCN2c2ccn3ncc(c3n2)C1 [Example 29, (6R)—N-ethyl-9-fluoro-13-oxa-2,16,20,21,24-pentaazapentacyclo-[16.5.2.0^2,6.0^7,12.0^21,25]pentacosa-1(24),7,9,11,18(25),19,22-heptaene-16-carboxamide]",1 to 100
